# Where “and” joins values, the source holds several entries; their conditions need not be identical. Identical values can stand only once.
# System: 624824-186-R-J3-PDC multicell spheroids, viability
# Test: Anticancer human tumor 624824-186-R-J3-PDC patient-derived colon adenocarcinoma cell line growth inhibition [PI3K]
# Settings: for viability, T/C: stronger effect = lower value
# Text: Combinatorial screen of targeted agents with the PI3K inhibitors inavolisib, alpelisib, duvelisib, and copanlisib in multi-cell type tumor spheroids
# A high-throughput screen of multi-cell type tumor spheroids was designed to identify active combinations of targeted small molecules and PI3K pathway inhibitors. Complex spheroids include a stromal component modeled by human endothelial cells (HUVEC) and fibroblasts modeled by human mesenchymal stem cells (MSCs). The concentration ranges selected for each drug and investigational agent were based upon clinically achievable concentrations if the clinical Cmax of the agent was known.
# Compounds. The drugs and investigational agents: inavolisib (NSC800729), alpelisib (NSC765974), duvelisib (NSC772469), copanlisib (NSC816437), ipatasertib (NSC767898), afuresertib (NSC778305), talazoparib (NSC767125), sapanisertib (NSC764658), selumetinib (NSC741078), tovorafenib (DAY101, NSC766906), vemurafenib (NSC761431), ravoxertinib (NSC781343), sotorasib (NSC818433), MRTX1133 (NSC 836407), abemaciclib (NSC 768073), palbociclib (NSC758247), venetoclax (NSC 766270), SY5609 (NSC837396), enzalutamide (NSC755605), and darolutamide (NSC825331), were obtained from the National Cancer Institute (NCI) Developmental Therapeutics Program Chemical Repository. The FDA-approved anticancer drug set is available from the NCI Developmental Therapeutics Program. […] The stock solutions were prepared in dimethyl sulfoxide (DMSO, Sigma-Aldrich, St. Louis, MO, cat. D2650) at 800-fold the tested concentration and stored at -70 degrees C prior to their use. All drugs and investigational agents were tested over a range starting from a high concentration at or near the clinical Cmax and decreasing in half-log increments. If the clinical Cmax for an agent had not been determined, the highest concentration tested was 10 microM.
# Cell Culture. All cells were maintained in an incubator at 37 degrees C and 5% CO2 with 95% humidity. The PDC lines were cultured according to standard operating procedures established by the NCI PDMR (https://pdmr.cancer.gov/sops/default.htm). All PDCs were thawed and cultured in Matrigel-coated flasks prepared with a working solution of 1X Ham's F-12 nutrient mix, without supplementation (Invitrogen, Waltham, MA, cat. 11765054), 100 U/mL penicillin-streptomycin (Invitrogen, cat. 15140122), and 2.5% Matrigel (Corning Inc., Corning, NY, cat. 354248) for the first three passages. The 354836-022-R-J1-PDC, 475296-252-R-J1-PDC, and 997726-040-R-J2-PDC lines were cultured in 6A media, which includes advanced DMEM/F-12 (Thermo Fisher Scientific, cat. 12634028), 10 mM HEPES (Thermo Fisher Scientific, cat. 15630080), 1X GlutaMAX supplement (Thermo Fisher Scientific, cat. 35050061), 0.1 mg/mL primocin (InvivoGen, San Diego, CA, cat. ant-pm-2), 10% defined fetal bovine serum, heat inactivated (HyClone Laboratories Inc., Logan, UT, cat. SH30070.03HI), 50% L-WRN conditioned media (ATCC, cat. CRL-3276), 1.25 mM N-Acetyl-L-cysteine (Sigma-Aldrich, cat. A9165), 10 mM nicotinamide (Sigma-Aldrich, cat. N0636), 1X B-27 supplement (Thermo Fisher Scientific, cat. 17504044), 1X N-2 supplement (Thermo Fisher Scientific, cat. 17502048), and 10 microM Y-27632 dihydrochloride (Tocris Bioscience, Bristol, United Kingdom, cat. 1254). The 624824-186-R-J2-PDC line was cultured in 6C/Colon 1B media, which includes all 6A media components plus 50 ng/mL human EGF recombinant protein (Thermo Fisher Scientific, cat. PHG0311). […]
# [1] = curve of first compound, second compound 0.0316 µM
# [2] = curve of first compound, second compound 0.1 µM
# [3] = curve of first compound, second compound 0.316 µM
# [4] = curve of first compound, second compound 1 µM
# [5] = curve of first compound, second compound 3.16 µM
# [6] = curve of first compound, second compound 10 µM
# [7] = second compound 0.0316 µM, first compound 0.0316 µM
# [8] = second compound 0.0316 µM, first compound 0.1 µM
# [9] = second compound 0.0316 µM, first compound 0.316 µM
# [10] = second compound 0.0316 µM, first compound 1 µM
# [11] = second compound 0.0316 µM, first compound 3.16 µM
# [12] = second compound 0.0316 µM, first compound 10 µM
# [13] = second compound 0.1 µM, first compound 0.0316 µM
# [14] = second compound 0.1 µM, first compound 0.1 µM
# [15] = second compound 0.1 µM, first compound 0.316 µM
# [16] = second compound 0.1 µM, first compound 1 µM
# [17] = second compound 0.1 µM, first compound 3.16 µM
# [18] = second compound 0.1 µM, first compound 10 µM
# [19] = second compound 0.316 µM, first compound 0.0316 µM
# [20] = second compound 0.316 µM, first compound 0.1 µM
# [21] = second compound 0.316 µM, first compound 0.316 µM
# [22] = second compound 0.316 µM, first compound 1 µM
# [23] = second compound 0.316 µM, first compound 3.16 µM
# [24] = second compound 0.316 µM, first compound 10 µM
# [25] = second compound 1 µM, first compound 0.0316 µM
# [26] = second compound 1 µM, first compound 0.1 µM
# [27] = second compound 1 µM, first compound 0.316 µM
# [28] = second compound 1 µM, first compound 1 µM
# [29] = second compound 1 µM, first compound 3.16 µM
# [30] = second compound 1 µM, first compound 10 µM
# [31] = second compound 3.16 µM, first compound 0.0316 µM
# [32] = second compound 3.16 µM, first compound 0.1 µM
# [33] = second compound 3.16 µM, first compound 0.316 µM
# [34] = second compound 3.16 µM, first compound 1 µM
# [35] = second compound 3.16 µM, first compound 3.16 µM
# [36] = second compound 3.16 µM, first compound 10 µM
# [37] = second compound 10 µM, first compound 0.0316 µM
# [38] = second compound 10 µM, first compound 0.1 µM
# [39] = second compound 10 µM, first compound 0.316 µM
# [40] = second compound 10 µM, first compound 1 µM
# [41] = second compound 10 µM, first compound 3.16 µM
# [42] = second compound 10 µM, first compound 10 µM
# 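Note: spheroids exposed to agents for seven days before luminescence read.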
# 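Throughout, for viability, T/C: luminescent signal used as a stand-in for spheroid viability; percent viability relative to DMSO vehicle control wells taken as 100%.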
smiles,measurement,setting,value
CC1(C)CCC(Nc2ncc(C(F)(F)F)c(-c3c[nH]c4c(P(C)(C)=O)c(C#N)ccc34)n2)CN1 (stereo unspecified) + Cc1nc(NC(=O)N2CCCC2C(N)=O)sc1-c1ccnc(C(C)(C)C(F)(F)F)c1,IC50,[1],5.61 µM
same,IC50,[2],5.42 µM
same,IC50,[3],5.18 µM
same,IC50,[4],4.6 µM
same,IC50,[5],1.83 µM
same,IC50,[6],< 0.0316 µM
same,"viability, T/C",[7],113%
same,"viability, T/C",[8],92%
same,"viability, T/C",[9],106%
same,"viability, T/C",[10],101%
same,"viability, T/C",[11],95%
same,"viability, T/C",[12],4.64%
same,"viability, T/C",[13],107%
same,"viability, T/C",[14],89.9%
same,"viability, T/C",[15],110%
same,"viability, T/C",[16],102%
same,"viability, T/C",[17],90.3%
same,"viability, T/C",[18],4.24%
same,"viability, T/C",[19],97.5%
same,"viability, T/C",[20],103%
same,"viability, T/C",[21],88%
same,"viability, T/C",[22],92.2%
same,"viability, T/C",[23],84.5%
same,"viability, T/C",[24],4.3%
same,"viability, T/C",[25],76.1%
same,"viability, T/C",[26],75.9%
same,"viability, T/C",[27],79.3%
same,"viability, T/C",[28],79.4%
same,"viability, T/C",[29],72.3%
same,"viability, T/C",[30],3.52%
same,"viability, T/C",[31],59.1%
same,"viability, T/C",[32],54.3%
same,"viability, T/C",[33],53.7%
same,"viability, T/C",[34],55.3%
same,"viability, T/C",[35],45.6%
same,"viability, T/C",[36],2.38%
same,"viability, T/C",[37],35.5%
same,"viability, T/C",[38],34.1%
same,"viability, T/C",[39],36.2%
same,"viability, T/C",[40],34%
same,"viability, T/C",[41],39%
same,"viability, T/C",[42],1.61%
CC(Cn1ccc(-c2ccc(C#N)c(Cl)c2)n1)NC(=O)c1cc(C(C)O)[nH]n1 (stereo unspecified) + Cc1nc(NC(=O)N2CCCC2C(N)=O)sc1-c1ccnc(C(C)(C)C(F)(F)F)c1,IC50,[1],> 10 µM
same,IC50,[2],> 10 µM
same,IC50,[3],> 10 µM
same,IC50,[4],> 10 µM
same,IC50,[5],> 10 µM
same,IC50,[6],> 10 µM
same,"viability, T/C",[7],101%
same,"viability, T/C",[8],107%
same,"viability, T/C",[9],102%
same,"viability, T/C",[10],104%
same,"viability, T/C",[11],104%
same,"viability, T/C",[12],113%
same,"viability, T/C",[13],108%
same,"viability, T/C",[14],105%
same,"viability, T/C",[15],108%
same,"viability, T/C",[16],102%
same,"viability, T/C",[17],107%
same,"viability, T/C",[18],109%
same,"viability, T/C",[19],107%
same,"viability, T/C",[20],101%
same,"viability, T/C",[21],104%
same,"viability, T/C",[22],93.1%
same,"viability, T/C",[23],115%
same,"viability, T/C",[24],107%
same,"viability, T/C",[25],111%
same,"viability, T/C",[26],101%
same,"viability, T/C",[27],109%
same,"viability, T/C",[28],101%
same,"viability, T/C",[29],101%
same,"viability, T/C",[30],98.7%
same,"viability, T/C",[31],86.4%
same,"viability, T/C",[32],91.5%
same,"viability, T/C",[33],88.3%
same,"viability, T/C",[34],91.4%
same,"viability, T/C",[35],79.3%
same,"viability, T/C",[36],86.1%
same,"viability, T/C",[37],72.4%
same,"viability, T/C",[38],75.6%
same,"viability, T/C",[39],66.5%
same,"viability, T/C",[40],67.3%
same,"viability, T/C",[41],67.3%
same,"viability, T/C",[42],62.4%
Cn1cnc2c(F)c(Nc3ccc(Br)cc3Cl)c(C(=O)NOCCO)cc21,"viability, T/C",compound 0.00949 µM,97.1% and 99.4% and 96.4%
same,"viability, T/C",compound 0.03 µM,87.8% and 93.3% and 90.5%
same,"viability, T/C",compound 0.0949 µM,89.1% and 88.9% and 83.9%
same,"viability, T/C",compound 0.3 µM,88.5% and 82.7% and 75.8%
same,"viability, T/C",compound 0.949 µM,67.2% and 63.3% and 74.6%
same,"viability, T/C",compound 3 µM,41.4% and 38.2% and 43.1%
same,IC50,curve of compound,2.05 µM and 1.78 µM and 2.37 µM

# — PubChem BioAssay AID1963977 (Molecular Pharmacology Branch, DTP, NCI, 2024)
